From publication PMC6155631, “Immobilized Trienzymatic System with Enhanced Stabilization for the Biotransformation of Lactose” (Molecules : A Journal of Synthetic Chemistry and Natural …, 2017)

Target: T1, β-galactosidase from Bacillus circulans (Biolacta N-5) (Niallia circulans, UniProt E5RWQ2)
T1 construct: gene bga; commercial Biolacta N-5 (Daiwa Kasei), partially purified; several isoforms, called monomeric
Assay: batch hydrolysis, HPLC
Type: biochemical
Conditions: soluble enzyme together with P1 and P2; Mozzarella whey lactose, 50 °C, 6 h
Text: batch hydrolysis, HPLC on β-galactosidase from Bacillus circulans (Biolacta N-5)

T1 sequence (E5RWQ2 24-1737): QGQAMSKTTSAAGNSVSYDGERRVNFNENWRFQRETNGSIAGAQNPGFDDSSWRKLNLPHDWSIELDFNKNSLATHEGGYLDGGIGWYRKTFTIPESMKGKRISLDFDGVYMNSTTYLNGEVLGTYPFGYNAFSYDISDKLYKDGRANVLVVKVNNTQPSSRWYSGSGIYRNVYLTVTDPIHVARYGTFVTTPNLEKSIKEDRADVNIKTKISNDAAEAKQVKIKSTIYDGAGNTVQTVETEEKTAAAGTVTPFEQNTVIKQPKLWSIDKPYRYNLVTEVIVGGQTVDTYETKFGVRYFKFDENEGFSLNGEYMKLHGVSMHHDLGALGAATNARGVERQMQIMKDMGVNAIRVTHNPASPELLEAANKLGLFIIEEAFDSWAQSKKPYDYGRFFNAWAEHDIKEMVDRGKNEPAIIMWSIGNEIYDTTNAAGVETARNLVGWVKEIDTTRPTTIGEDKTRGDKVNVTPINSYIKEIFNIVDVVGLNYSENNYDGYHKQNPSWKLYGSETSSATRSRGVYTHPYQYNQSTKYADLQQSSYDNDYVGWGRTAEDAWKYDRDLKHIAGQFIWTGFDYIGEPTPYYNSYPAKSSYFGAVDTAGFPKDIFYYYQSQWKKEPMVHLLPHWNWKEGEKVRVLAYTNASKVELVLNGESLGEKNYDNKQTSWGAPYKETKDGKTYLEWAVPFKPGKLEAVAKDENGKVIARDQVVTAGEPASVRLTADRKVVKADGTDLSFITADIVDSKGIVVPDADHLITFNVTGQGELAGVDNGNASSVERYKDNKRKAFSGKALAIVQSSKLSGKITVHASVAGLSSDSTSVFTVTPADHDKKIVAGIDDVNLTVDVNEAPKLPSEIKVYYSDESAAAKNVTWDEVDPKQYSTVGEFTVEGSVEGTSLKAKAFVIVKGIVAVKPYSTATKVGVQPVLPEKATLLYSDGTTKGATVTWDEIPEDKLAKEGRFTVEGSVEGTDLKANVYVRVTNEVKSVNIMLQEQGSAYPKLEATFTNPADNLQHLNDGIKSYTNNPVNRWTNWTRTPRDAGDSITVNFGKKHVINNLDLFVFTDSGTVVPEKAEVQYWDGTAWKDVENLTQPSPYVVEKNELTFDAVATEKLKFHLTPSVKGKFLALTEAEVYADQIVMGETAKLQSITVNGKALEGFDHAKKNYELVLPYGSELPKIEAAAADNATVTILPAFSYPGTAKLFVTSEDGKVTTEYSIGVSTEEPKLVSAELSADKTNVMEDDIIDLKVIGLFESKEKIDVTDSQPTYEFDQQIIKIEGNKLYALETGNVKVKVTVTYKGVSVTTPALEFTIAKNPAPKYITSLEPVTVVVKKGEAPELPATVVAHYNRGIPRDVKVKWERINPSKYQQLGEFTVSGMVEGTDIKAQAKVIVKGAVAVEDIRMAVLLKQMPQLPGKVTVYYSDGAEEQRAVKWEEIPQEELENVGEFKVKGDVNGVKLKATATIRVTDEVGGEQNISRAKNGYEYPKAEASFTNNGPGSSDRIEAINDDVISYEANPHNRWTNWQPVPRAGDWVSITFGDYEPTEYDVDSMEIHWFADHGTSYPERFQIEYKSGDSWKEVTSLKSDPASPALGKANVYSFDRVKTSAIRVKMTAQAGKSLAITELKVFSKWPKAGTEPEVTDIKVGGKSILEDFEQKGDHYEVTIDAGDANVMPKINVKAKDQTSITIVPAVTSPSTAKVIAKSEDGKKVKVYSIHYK

With `OC[C@H]1O[C@@H](O[C@H]2[C@H](O)[C@@H](O)C(O)O[C@@H]2CO)[C@H](O)[C@@H](O)[C@H]1O` (stereo partly shown) [lactose] the “Lactolysis (%)” value was 76 ± 1%.
